Read-outs that look alike come from different tables or passages of the source.
Columns and labels:
[1] = target: T1, EGFR wild type (Homo sapiens, UniProt P00533); assay: Inhibition of EGFR wild type biochemical enzymatic activity (HTRF); settings: EGFR WT, 1 mM ATP, 1 h, room temperature, read-out: IC50 (nM) @WT
T1 construct: purchased Carna Bio
Procedure, shortened: (§1)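 Following 1 h at room temperature with titrated compound, 1 mM ATP and 1 μM biotin-TK peptide (Mg2+/Mn2+, CHAPS, DTT, 0.5% DMSO buffer), EDTA-containing detection reagent terminated each enzyme reaction. Time-resolved fluorescence (ex 320, em 665/615 nm) ratio tracked activity. IC50 values came from four-parameter fits.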

[2] = target: T2, EGFR L858R (Homo sapiens, UniProt P00533, L858R); assay: Inhibition of EGFR L858R biochemical enzymatic activity (HTRF); settings: 1 mM ATP, 1 h, room temperature, read-out: IC50 (nM) @L858R
T2 construct: purchased Carna Bio
Procedure, shortened: as §1

[3] = target: T3, EGFR L858R/T790M (Homo sapiens, UniProt P00533, L858R/T790M); assay: Inhibition of EGFR L858R/T790M biochemical enzymatic activity (HTRF); settings: EGFR L858R-T790M, 1 mM ATP, 1 h, room temperature, read-out: IC50 (nM) @L858R-T790M
T3 construct: purchased Carna Bio
Procedure, shortened: as §1

[4] = target: T4, EGFR Exon19Del (Homo sapiens, UniProt P00533, DEL746-750); assay: Inhibition of EGFR Exon19Del biochemical enzymatic activity (HTRF); settings: EGFR Del19, 1 mM ATP, 1 h, room temperature, read-out: IC50 @Del19
T4 construct: purchased Carna Bio
Procedure, shortened: as §1

[5] = target: T5, EGFR Exon19Del/T790M (Homo sapiens, UniProt P00533, DEL746-750/T790M); assay: Inhibition of EGFR Exon19Del/T790M biochemical enzymatic activity (HTRF); settings: EGFR Del19-T790M, 1 mM ATP, 1 h, room temperature, read-out: IC50 (nM) @Del19-T790M
T5 construct: purchased Carna Bio
Procedure, shortened: as §1

[6] = target: T6, EGFR[T790M/C797S/L858R] (Homo sapiens, UniProt P00533, C797S/L858R/T790M); assay: Inhibition of EGFR[T790M/C797S/L858R] biochemical enzymatic activity (HTRF); settings: EGFR T790M-C797S-L858R, 1 mM ATP, 1 h, room temperature, read-out: IC50 (nM) @T790M- C797S - L858R
T6 construct: purchased Carna Bio
Procedure, shortened: as §1

[7] = target: T7, EGFR[T790M/C797S/d746-750] (Homo sapiens, UniProt P00533, C797S/DEL746-750/T790M); assay: Inhibition of EGFR[T790M/C797S/d746-750] biochemical enzymatic activity (HTRF); settings: EGFR T790M-C797S-Del19, 1 mM ATP, 1 h, room temperature, read-out: IC50 (nM) @T790M - C797S - Del19
T7 construct: purchased Carna Bio
Procedure, shortened: as §1

[8] = target: T8, EGFR (d746-750 C797S) (Homo sapiens, UniProt P00533, C797S/DEL746-750); assay: Inhibition of EGFR (d746-750 C797S) biochemical enzymatic activity (HTRF); settings: EGFR Del19-C797S, 1 mM ATP, 1 h, room temperature, read-out: IC50 (nM) @Del19-C797S
T8 construct: purchased signalchem
Procedure, shortened: as §1

[9] = target: T9, EGFR (C797S L858R) (Homo sapiens, UniProt P00533, C797S/L858R); assay: Inhibition of EGFR (C797S L858R) biochemical enzymatic activity (HTRF); settings: EGFR L858-C797S, 1 mM ATP, 1 h, room temperature, read-out: IC50 (nM) @L858-C797S
T9 construct: purchased signalchem
Procedure, shortened: as §1

[10] = test system: Ba/F3 cells expressing EGFR mutations; assay: Cell proliferation assay, Ba/F3 cells expressing EGFR mutations (CellTiter-Glo, 72 hours); assay type: cell-based; settings: Mus musculus, BaF3, 72 h
Procedure, shortened: (§2)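 In RPMI1640 medium (PC-9 with 10% FBS), each cell line was seeded at its own density: Ba/F3 5000 and PC-9 500 per well. A compound series was added the next day, with a time-zero viability plate read in parallel. Percent proliferation was subtracted for G0 and referenced to DMSO, and GI50 was derived by curve fitting.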

[11] = test system: PC-9; assay: Cell proliferation assay, PC-9 cells (CellTiter-Glo, 72 hours); assay type: cell-based; settings: Homo sapiens, PC-9, 72 h, PC9 cells, read-out: GI50 PC9
Procedure, shortened: as §2

[12] = test system: A-431; assay: Cell proliferation assay, A-431 cells (GI50, Table 6); assay type: cell-based; settings: Homo sapiens, A-431, A-431 cells
[13] = BaF3 cells, EGFR DEL19 - C797S, read-out: GI50 DEL19 - C797S/BaF3
[14] = BaF3 cells, EGFR DEL19 - T790-C797S, read-out: GI50 DEL19 - T790-C797S/BaF3
[15] = BaF3 cells, EGFR L858R - C797S, read-out: GI50 L858R - C797S/BaF3
[16] = BaF3 cells, EGFR L858R - T790-C797S, read-out: GI50 L858R - T790-C797S/BaF3
[17] = BaF3 cells, EGFR L858R - T790M, read-out: GI50 L858R - T790M/BaF3
[18] = BaF3 cells, EGFR L858R, read-out: GI50 L858R/BaF3
[19] = EGFR DEL19 - T790M, read-out: GI50 DEL19 - T790M

T5 sequence (P00533 with tags, fused parts or gaps DEL746-750/T790M limits assumed): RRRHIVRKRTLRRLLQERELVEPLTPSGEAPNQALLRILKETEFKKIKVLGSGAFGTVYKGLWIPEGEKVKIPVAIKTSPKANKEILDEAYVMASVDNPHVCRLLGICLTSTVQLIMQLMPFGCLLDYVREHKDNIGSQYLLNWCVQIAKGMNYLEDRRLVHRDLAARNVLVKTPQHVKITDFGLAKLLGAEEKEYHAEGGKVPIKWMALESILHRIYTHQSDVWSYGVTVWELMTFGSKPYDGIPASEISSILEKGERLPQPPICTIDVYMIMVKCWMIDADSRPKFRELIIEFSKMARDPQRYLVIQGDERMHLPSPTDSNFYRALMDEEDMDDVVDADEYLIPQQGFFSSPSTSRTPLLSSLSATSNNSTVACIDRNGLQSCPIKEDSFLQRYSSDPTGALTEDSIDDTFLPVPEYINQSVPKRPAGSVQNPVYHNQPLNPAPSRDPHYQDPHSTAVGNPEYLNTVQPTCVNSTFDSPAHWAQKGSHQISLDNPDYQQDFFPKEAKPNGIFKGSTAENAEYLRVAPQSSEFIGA
T1 sequence (P00533 25-1210): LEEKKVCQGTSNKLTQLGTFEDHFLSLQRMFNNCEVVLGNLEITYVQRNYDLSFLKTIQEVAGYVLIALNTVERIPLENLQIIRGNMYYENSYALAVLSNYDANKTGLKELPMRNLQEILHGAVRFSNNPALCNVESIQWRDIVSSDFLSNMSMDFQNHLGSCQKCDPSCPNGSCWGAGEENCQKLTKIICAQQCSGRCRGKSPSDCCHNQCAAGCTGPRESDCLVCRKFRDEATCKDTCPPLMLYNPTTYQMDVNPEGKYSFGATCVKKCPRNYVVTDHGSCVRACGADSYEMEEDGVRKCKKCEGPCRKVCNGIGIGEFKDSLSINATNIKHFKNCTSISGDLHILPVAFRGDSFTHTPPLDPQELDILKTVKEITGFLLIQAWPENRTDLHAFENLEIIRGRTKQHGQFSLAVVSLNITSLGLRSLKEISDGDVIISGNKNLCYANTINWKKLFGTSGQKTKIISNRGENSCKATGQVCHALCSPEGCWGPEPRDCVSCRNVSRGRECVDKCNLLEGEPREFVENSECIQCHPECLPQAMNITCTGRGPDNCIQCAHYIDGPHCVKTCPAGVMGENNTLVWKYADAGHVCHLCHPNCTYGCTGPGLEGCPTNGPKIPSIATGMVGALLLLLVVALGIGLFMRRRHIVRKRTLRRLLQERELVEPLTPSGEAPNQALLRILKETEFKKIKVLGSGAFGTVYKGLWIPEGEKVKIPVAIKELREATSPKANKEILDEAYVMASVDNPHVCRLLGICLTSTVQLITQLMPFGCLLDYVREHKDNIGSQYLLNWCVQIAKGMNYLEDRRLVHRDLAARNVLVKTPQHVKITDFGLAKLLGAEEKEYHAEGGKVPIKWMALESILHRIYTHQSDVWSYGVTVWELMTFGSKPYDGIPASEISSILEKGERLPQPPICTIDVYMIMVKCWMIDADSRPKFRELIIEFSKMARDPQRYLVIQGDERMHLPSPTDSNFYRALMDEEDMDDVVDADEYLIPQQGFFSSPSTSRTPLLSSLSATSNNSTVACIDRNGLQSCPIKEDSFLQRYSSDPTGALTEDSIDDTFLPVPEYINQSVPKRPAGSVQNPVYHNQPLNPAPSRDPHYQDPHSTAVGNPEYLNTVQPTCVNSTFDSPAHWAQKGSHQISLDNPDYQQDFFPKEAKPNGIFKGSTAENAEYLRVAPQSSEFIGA
T9 sequence (P00533 25-1210 C797S/L858R): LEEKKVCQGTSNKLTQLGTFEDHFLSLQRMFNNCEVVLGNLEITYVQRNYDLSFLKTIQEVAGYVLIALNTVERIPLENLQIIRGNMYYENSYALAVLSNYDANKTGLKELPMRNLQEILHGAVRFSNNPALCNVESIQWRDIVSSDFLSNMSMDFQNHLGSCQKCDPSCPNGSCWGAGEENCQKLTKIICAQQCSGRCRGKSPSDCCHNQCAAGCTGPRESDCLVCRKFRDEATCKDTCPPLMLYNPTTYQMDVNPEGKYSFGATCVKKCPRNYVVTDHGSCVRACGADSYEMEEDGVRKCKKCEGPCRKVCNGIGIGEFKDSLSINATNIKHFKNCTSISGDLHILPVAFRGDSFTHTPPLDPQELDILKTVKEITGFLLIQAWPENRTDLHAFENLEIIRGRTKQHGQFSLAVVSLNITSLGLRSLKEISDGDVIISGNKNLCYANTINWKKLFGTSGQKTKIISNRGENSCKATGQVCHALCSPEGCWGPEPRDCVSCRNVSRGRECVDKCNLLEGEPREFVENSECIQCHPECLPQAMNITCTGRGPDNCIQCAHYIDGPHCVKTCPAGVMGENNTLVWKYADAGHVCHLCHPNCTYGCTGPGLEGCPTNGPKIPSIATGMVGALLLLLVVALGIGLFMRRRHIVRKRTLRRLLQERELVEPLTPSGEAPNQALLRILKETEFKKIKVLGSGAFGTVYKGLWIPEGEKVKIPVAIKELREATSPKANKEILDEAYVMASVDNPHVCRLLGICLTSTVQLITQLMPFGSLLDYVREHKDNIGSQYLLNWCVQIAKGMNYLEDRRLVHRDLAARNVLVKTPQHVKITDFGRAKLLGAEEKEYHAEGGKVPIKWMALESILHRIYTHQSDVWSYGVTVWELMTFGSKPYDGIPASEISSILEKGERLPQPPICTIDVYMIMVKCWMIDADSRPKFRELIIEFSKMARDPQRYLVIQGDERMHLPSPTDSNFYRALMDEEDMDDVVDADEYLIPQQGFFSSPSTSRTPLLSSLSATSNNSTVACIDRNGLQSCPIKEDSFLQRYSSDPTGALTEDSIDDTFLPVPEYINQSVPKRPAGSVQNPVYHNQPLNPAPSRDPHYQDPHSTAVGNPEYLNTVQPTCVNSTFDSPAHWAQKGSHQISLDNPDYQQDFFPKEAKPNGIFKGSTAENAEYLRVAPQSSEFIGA
T6 sequence (P00533 25-1210 T790M/C797S/L858R): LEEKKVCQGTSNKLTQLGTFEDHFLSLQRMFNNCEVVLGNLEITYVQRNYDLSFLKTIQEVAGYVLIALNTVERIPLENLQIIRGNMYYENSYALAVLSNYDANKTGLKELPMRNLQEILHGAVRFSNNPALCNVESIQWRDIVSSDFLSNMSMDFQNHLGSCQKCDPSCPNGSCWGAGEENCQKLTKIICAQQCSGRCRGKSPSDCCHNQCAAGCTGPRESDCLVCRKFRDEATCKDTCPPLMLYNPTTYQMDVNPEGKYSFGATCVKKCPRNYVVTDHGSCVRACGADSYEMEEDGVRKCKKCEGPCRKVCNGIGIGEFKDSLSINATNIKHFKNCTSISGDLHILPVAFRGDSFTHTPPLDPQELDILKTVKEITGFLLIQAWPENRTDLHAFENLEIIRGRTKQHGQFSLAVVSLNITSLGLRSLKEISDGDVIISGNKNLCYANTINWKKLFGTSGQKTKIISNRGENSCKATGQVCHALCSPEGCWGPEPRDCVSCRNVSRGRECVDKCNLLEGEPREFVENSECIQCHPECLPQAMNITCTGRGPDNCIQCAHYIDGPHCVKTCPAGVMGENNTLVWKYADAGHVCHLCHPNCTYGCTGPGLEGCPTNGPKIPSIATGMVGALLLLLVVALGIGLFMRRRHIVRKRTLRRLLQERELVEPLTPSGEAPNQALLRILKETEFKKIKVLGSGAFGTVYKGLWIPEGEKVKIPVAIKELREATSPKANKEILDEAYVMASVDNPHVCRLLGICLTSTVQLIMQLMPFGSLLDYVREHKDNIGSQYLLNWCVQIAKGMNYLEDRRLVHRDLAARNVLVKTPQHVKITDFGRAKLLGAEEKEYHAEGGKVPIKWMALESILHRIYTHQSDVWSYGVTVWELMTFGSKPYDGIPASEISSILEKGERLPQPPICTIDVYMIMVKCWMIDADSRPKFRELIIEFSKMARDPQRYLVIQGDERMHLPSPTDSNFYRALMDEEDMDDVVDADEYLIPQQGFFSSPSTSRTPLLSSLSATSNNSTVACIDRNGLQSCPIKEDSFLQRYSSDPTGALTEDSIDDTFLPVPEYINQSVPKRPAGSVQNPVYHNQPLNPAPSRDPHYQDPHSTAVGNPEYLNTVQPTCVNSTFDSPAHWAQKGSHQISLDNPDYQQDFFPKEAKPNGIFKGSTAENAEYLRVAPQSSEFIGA
T4 sequence (P00533 with tags, fused parts or gaps DEL746-750 limits assumed): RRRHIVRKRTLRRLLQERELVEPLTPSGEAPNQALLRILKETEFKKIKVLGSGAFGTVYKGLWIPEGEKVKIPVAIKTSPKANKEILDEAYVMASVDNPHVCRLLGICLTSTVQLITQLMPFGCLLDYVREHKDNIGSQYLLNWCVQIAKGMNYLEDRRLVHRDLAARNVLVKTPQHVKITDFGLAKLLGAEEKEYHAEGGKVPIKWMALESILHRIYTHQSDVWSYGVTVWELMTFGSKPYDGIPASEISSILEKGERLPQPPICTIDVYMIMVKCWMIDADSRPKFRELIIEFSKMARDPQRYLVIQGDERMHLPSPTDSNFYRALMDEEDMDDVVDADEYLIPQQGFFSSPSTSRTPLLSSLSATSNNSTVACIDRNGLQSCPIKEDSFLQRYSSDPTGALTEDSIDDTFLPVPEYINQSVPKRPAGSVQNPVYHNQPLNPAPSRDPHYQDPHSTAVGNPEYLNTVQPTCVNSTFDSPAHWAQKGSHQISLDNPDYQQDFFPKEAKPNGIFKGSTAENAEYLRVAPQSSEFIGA

CN(C)CCN(C)c1ccc2nc3n(c2c1)C12CCC(CC1)CN(CCOc1c(cnn1C)-c1cc(cn(C)c1=O)C(=O)N3)C2 [Example A124]
IC50 [1]: 2790 nM
IC50 [2]: 139 nM
IC50 [3]: 334 nM
IC50 [4]: 15 nM
IC50 [5]: 9.8 nM
IC50 [6]: 72 nM
IC50 [7]: 7.7 nM
IC50 [8]: 11 nM
IC50 [9]: 76 nM
GI50 [10, 13]: 7.2 nM
GI50 [10, 14]: 38 nM
GI50 [10, 15]: 32 nM
GI50 [10, 16]: 11 nM
GI50 [10, 17]: 47 nM
GI50 [10, 18]: 5.2 nM
GI50 [10, 19]: 26 nM
GI50 [11]: 27 nM
GI50 [12]: 3800 nM

CN(C)CCCN(C)c1ccc2nc3n(c2c1)C12CCC(CC1)CN(CCOc1c(cnn1C)-c1cc(cn(C)c1=O)C(=O)N3)C2 [Example A125]
IC50 [1]: 4060 nM
IC50 [2]: 189 nM
IC50 [3]: 582 nM
IC50 [4]: 29 nM
IC50 [5]: 18 nM
IC50 [6]: 359 nM
IC50 [7]: 15 nM
IC50 [8]: 25 nM
IC50 [9]: 128 nM
GI50 [10, 13]: 7.9 nM
GI50 [10, 14]: 43 nM
GI50 [10, 15]: 34 nM
GI50 [10, 16]: 21 nM
GI50 [10, 17]: 64 nM
GI50 [10, 18]: 7 nM
GI50 [10, 19]: 30 nM
GI50 [11]: 35 nM
GI50 [12]: 3740 nM

CN1CC2CN(c3ccc4nc5n(c4c3)C34CCC(CC3)CN(CCOc3c(cnn3C)-c3cc(cn(C)c3=O)C(=O)N5)C4)CC2C1 (stereo not drawn) [Example A126]
IC50 [1]: > 5000 nM
IC50 [2]: 95 nM
IC50 [3]: 169 nM
IC50 [4]: 13 nM
IC50 [5]: 12 nM
IC50 [6]: 52 nM
IC50 [7]: 8.9 nM
IC50 [8]: 9.9 nM
IC50 [9]: 71 nM
GI50 [10, 13]: 7.3 nM
GI50 [10, 14]: 36 nM
GI50 [10, 15]: 29 nM
GI50 [10, 16]: 18 nM
GI50 [10, 17]: 50 nM
GI50 [10, 18]: 5.5 nM
GI50 [10, 19]: 26 nM
GI50 [11]: 34 nM
GI50 [12]: 4090 nM

CN1CCC2CN(c3ccc4nc5n(c4c3)C34CCC(CC3)CN(CCOc3c(cnn3C)-c3cc(cn(C)c3=O)C(=O)N5)C4)CC21 (stereo not drawn) [Example A127]
IC50 [1]: 4880 nM
IC50 [2]: 118 nM
IC50 [3]: 211 nM
IC50 [4]: 15 nM
IC50 [5]: 10 nM
IC50 [6]: 39 nM
IC50 [7]: 6.1 nM
IC50 [8]: 9.2 nM
IC50 [9]: 69 nM
GI50 [10, 13]: 8.5 nM
GI50 [10, 14]: 36 nM
GI50 [10, 15]: 38 nM
GI50 [10, 16]: 21 nM
GI50 [10, 17]: 52 nM
GI50 [10, 18]: 7.2 nM
GI50 [10, 19]: 26 nM
GI50 [11]: 34 nM
GI50 [12]: 4680 nM

Cn1ncc2c1OCCN1CC3CCC(CC3)(C1)n1c(nc3ccc(N4CCN(C5CC5)CC4)cc31)NC(=O)c1cc-2c(=O)n(C)c1 [Example A128]
IC50 [1]: > 5000 nM
IC50 [2]: 202 nM
IC50 [3]: 307 nM
IC50 [4]: 11 nM
IC50 [5]: 8 nM
IC50 [6]: 33 nM
IC50 [7]: 4.7 nM
IC50 [8]: 4.9 nM
IC50 [9]: 49 nM
GI50 [10, 13]: 13 nM
GI50 [10, 14]: 90 nM
GI50 [10, 15]: 65 nM
GI50 [10, 16]: 47 nM
GI50 [10, 17]: 119 nM
GI50 [10, 18]: 11 nM
GI50 [10, 19]: 66 nM
GI50 [11]: 61 nM
GI50 [12]: 2650 nM

Reference: patent publication US20260365670A1, “EGFR INHIBITORS AND USES THEREOF” (DIZAL (JIANGSU) PHARMACEUTICAL CO., LTD., priority 2022, published 2026)
